PMC7265341, “Quantifying CDK inhibitor selectivity in live cells” (Nature Communications, 2020)
Where two headings read alike, the source gives them in different places.

Assays:
CDK14/Cyclin Y = CDK14/Cyclin Y (Homo sapiens, UniProt O94921); experiment: NanoBRET live-cell target engagement, CDK14-NanoLuc/Cyclin Y in HEK-293; assay type: binding; conditions: CDK14/Y, read-out: Inhibition at 10µM (%)
CDK1/Cyclin E1 = CDK1/Cyclin E1 (Homo sapiens, UniProt P06493); experiment: NanoBRET live-cell target engagement, CDK1-NanoLuc/Cyclin E1 in HEK-293; assay type: binding; conditions: CDK1/E1, read-out: Inhibition at 10µM (%)
CDK15/Cyclin Y = CDK15/Cyclin Y (Homo sapiens, UniProt Q96Q40); experiment: NanoBRET live-cell target engagement, NanoLuc-CDK15/Cyclin Y in HEK-293; assay type: binding; conditions: CDK15/Y, read-out: Inhibition at 10µM (%)
CDK9/Cyclin K = CDK9/Cyclin K (Homo sapiens, UniProt P50750); experiment: NanoBRET live-cell target engagement, NanoLuc-CDK9/Cyclin K in HEK-293; assay type: binding; conditions: CDK9/K, read-out: Inhibition at 10µM (%)
CDK19/Cyclin C = CDK19/Cyclin C (Homo sapiens, UniProt Q9BWU1); experiment: NanoBRET live-cell target engagement, NanoLuc-CDK19/Cyclin C in HEK-293; conditions: for IC50: IC50 (nM), CDK19/C; for inhibition at 10 µM: read-out: Inhibition at 10µM (%), CDK19/C
CDK8/Cyclin C = CDK8/Cyclin C (Homo sapiens, UniProt P49336); experiment: NanoBRET live-cell target engagement, NanoLuc-CDK8/Cyclin C in HEK-293; assay type: binding; conditions: for IC50: CDK8/C; for inhibition at 10 µM: read-out: Inhibition at 10µM (%), CDK8/C
CDK2/Cyclin E1 = CDK2/Cyclin E1 (Homo sapiens, UniProt P24941); experiment: NanoBRET live-cell target engagement, CDK2-NanoLuc/Cyclin E1 in HEK-293; assay type: binding; conditions: CDK2/E1, read-out: Inhibition at 10µM (%)
CDK5/CDK5R1 = CDK5/CDK5R1 (Homo sapiens, UniProt Q00535); experiment: NanoBRET live-cell target engagement, CDK5-NanoLuc/CDK5R1 in HEK-293; assay type: binding; conditions: CDK5/CDK5R1, read-out: Inhibition at 10µM (%)
CDK10/Cyclin L2 = CDK10/Cyclin L2 (Homo sapiens, UniProt Q15131); experiment: NanoBRET live-cell target engagement, CDK10-NanoLuc/Cyclin L2 in HEK-293; conditions: read-out: Inhibition at 10µM (%), CDK10/L2
CDK11A/Cyclin L2 = biological target: T1, CDK11A/Cyclin L2 (Homo sapiens, UniProt Q9UQ88); experiment: NanoBRET live-cell target engagement, CDK11A-NanoLuc/Cyclin L2 in HEK-293; assay type: binding; conditions: CDK11a/L2, read-out: Inhibition at 10µM (%)
T1 sequence (Q9UQ88 1-783): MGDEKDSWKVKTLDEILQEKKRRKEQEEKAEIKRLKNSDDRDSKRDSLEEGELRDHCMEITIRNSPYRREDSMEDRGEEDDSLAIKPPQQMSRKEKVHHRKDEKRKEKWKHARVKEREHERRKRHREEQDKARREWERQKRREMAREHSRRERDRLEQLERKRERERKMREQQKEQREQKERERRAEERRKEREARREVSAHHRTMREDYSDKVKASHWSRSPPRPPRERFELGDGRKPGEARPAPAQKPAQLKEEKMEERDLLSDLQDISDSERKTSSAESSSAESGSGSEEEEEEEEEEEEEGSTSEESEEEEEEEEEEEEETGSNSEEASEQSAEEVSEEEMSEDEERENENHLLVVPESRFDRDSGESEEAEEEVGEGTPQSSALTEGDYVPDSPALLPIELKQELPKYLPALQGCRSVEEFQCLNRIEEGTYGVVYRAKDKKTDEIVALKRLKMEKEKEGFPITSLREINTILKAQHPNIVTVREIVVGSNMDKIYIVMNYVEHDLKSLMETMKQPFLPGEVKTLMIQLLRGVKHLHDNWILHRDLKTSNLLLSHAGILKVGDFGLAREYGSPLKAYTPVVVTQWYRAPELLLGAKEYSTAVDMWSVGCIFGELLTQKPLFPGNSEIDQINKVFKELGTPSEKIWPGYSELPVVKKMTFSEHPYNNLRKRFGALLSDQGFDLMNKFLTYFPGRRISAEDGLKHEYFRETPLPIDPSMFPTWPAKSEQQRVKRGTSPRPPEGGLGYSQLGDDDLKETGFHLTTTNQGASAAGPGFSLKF

CDK16/Cyclin Y = CDK16/Cyclin Y (Homo sapiens, UniProt Q00536); experiment: NanoBRET live-cell target engagement, CDK16-NanoLuc/Cyclin Y in HEK-293; assay type: binding; conditions: CDK16/Y, read-out: Inhibition at 10µM (%)
CDK17/Cyclin Y = CDK17/Cyclin Y (Homo sapiens, UniProt Q00537); experiment: NanoBRET live-cell target engagement, CDK17-NanoLuc/Cyclin Y in HEK-293; assay type: binding; conditions: CDK17/Y, read-out: Inhibition at 10µM (%)
CDK13/Cyclin K = CDK13/Cyclin K (Homo sapiens, UniProt Q14004); experiment: NanoBRET live-cell target engagement, CDK13-NanoLuc/Cyclin K in HEK-293; assay type: binding; conditions: CDK13/K, read-out: Inhibition at 10µM (%)
CDK6/Cyclin D1 = CDK6/Cyclin D1 (Homo sapiens, UniProt Q00534); experiment: NanoBRET live-cell target engagement, NanoLuc-CDK6/Cyclin D1 in HEK-293; assay type: binding; conditions: CDK6/D1, read-out: Inhibition at 10µM (%)
CDK18/Cyclin Y = CDK18/Cyclin Y (Homo sapiens, UniProt Q07002); experiment: NanoBRET live-cell target engagement, CDK18-NanoLuc/Cyclin Y in HEK-293; assay type: binding; conditions: CDK18/Y, read-out: Inhibition at 10µM (%)
CDK12/Cyclin K = CDK12/Cyclin K (Homo sapiens, UniProt Q9NYV4); experiment: NanoBRET live-cell target engagement, CDK12-NanoLuc/Cyclin K in HEK-293; assay type: binding; conditions: CDK12/K, read-out: Inhibition at 10µM (%)
CDK20/Cyclin H = CDK20/Cyclin H (Homo sapiens, UniProt Q8IZL9); experiment: NanoBRET live-cell target engagement, NanoLuc-CDK20/Cyclin H in HEK-293; assay type: binding; conditions: CDK20/H, read-out: Inhibition at 10µM (%)
CDK4/Cyclin D1 = CDK4/Cyclin D1 (Homo sapiens, UniProt P11802); experiment: NanoBRET live-cell target engagement, NanoLuc-CDK4/Cyclin D1 in HEK-293; assay type: binding; conditions: CDK4/D1, read-out: Inhibition at 10µM (%)
CDK11B/Cyclin L2 = CDK11B/Cyclin L2 (Homo sapiens, UniProt P21127); experiment: NanoBRET live-cell target engagement, CDK11B-NanoLuc/Cyclin L2 in HEK-293; assay type: binding; conditions: CDK11b/L2, read-out: Inhibition at 10µM (%)

CDK1/Cyclin E1, sequence (P06493 whole entry): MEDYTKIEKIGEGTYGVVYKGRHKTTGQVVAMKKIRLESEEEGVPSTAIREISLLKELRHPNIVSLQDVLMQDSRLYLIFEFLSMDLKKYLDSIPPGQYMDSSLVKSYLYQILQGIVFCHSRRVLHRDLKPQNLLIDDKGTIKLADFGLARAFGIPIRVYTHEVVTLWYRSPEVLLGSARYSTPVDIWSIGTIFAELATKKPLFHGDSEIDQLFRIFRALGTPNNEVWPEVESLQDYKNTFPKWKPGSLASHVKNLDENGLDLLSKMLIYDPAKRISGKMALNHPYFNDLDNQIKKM
CDK1/Cyclin E1, sequence (P24864 whole entry partner): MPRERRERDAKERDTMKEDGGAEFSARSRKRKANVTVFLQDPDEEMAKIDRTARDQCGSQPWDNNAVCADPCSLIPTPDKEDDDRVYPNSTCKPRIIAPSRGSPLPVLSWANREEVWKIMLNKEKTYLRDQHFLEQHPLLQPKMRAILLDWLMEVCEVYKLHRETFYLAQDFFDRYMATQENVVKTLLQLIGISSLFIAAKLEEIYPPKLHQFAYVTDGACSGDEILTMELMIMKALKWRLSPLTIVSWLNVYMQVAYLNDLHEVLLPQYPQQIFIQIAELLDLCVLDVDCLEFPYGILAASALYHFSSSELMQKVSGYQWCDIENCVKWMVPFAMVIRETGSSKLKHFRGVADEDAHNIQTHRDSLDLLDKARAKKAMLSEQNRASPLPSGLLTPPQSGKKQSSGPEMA
CDK17/Cyclin Y, sequence (Q00537 whole entry): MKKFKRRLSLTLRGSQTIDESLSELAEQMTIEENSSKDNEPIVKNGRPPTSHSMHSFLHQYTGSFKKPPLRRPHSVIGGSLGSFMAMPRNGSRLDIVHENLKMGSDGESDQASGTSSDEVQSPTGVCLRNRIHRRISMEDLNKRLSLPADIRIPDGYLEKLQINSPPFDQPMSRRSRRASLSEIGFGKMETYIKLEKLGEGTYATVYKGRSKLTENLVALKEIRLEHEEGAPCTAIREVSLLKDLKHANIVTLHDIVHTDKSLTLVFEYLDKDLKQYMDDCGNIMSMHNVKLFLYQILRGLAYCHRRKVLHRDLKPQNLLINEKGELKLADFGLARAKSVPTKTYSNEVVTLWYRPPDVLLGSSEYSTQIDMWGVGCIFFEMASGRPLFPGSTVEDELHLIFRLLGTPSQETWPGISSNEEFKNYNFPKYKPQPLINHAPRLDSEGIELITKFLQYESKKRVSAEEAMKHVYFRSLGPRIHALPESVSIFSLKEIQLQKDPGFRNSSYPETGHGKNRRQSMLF
CDK17/Cyclin Y, sequence (Q8ND76 whole entry partner): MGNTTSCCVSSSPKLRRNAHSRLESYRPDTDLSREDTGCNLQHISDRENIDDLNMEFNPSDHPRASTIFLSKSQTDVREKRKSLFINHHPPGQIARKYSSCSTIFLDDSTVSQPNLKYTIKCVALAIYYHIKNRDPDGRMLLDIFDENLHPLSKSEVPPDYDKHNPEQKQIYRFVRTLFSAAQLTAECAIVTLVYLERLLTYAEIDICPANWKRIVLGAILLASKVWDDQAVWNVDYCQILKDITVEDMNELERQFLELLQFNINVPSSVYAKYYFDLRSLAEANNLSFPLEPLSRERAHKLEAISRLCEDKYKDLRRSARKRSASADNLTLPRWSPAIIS
CDK5/CDK5R1, sequence (Q00535 whole entry): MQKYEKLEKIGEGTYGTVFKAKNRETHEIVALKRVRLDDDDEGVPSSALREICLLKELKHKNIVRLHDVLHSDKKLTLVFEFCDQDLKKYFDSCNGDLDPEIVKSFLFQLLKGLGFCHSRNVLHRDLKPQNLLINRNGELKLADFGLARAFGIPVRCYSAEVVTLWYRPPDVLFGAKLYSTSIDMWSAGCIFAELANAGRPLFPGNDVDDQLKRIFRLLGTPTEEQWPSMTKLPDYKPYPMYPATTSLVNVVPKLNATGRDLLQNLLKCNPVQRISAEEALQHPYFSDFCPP
CDK5/CDK5R1, sequence (Q15078 whole entry partner): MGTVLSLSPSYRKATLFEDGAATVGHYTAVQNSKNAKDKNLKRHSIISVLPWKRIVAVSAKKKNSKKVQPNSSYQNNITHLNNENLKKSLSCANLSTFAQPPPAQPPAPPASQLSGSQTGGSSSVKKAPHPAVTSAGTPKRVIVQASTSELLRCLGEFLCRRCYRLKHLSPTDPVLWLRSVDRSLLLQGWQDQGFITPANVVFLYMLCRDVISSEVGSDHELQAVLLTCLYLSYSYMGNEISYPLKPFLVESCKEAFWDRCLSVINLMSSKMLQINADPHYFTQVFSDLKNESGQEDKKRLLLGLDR
CDK15/Cyclin Y, sequence (Q96Q40 whole entry): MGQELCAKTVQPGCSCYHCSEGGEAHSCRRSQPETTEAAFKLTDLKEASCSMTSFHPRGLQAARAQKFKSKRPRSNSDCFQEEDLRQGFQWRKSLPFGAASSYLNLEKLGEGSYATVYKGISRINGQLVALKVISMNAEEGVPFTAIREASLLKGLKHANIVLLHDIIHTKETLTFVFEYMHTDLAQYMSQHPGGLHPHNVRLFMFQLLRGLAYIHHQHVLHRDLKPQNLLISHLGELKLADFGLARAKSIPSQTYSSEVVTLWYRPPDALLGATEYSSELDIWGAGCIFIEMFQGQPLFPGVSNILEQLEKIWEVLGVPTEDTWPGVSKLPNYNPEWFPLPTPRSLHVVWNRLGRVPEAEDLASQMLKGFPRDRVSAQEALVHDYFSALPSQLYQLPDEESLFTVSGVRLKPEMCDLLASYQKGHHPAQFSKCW
CDK15/Cyclin Y, sequence (Q8ND76 whole entry partner): as the sequence (Q8ND76 whole entry partner) above
CDK19/Cyclin C, sequence (Q9BWU1 whole entry): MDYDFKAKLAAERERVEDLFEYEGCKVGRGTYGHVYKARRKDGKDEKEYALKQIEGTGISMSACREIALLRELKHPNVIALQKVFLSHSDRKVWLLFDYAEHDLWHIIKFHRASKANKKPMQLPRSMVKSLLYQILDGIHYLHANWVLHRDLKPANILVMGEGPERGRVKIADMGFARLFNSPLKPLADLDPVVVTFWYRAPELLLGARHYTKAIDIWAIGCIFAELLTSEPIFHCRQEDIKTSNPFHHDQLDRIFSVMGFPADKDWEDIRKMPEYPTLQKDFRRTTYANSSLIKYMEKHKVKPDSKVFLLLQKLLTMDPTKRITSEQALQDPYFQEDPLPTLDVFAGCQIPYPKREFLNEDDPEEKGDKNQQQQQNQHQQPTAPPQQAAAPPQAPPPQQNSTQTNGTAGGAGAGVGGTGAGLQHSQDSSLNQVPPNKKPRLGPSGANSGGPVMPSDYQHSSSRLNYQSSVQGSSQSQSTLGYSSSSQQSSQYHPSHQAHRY
CDK19/Cyclin C, sequence (P24863 whole entry partner): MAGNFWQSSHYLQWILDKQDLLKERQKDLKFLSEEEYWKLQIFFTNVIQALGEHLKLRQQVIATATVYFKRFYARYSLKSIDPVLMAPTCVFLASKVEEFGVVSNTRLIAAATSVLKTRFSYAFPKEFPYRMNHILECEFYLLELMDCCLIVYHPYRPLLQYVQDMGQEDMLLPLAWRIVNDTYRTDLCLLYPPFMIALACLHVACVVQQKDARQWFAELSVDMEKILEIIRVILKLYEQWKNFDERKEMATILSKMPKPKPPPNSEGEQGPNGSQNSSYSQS
CDK8/Cyclin C, sequence (P49336 whole entry): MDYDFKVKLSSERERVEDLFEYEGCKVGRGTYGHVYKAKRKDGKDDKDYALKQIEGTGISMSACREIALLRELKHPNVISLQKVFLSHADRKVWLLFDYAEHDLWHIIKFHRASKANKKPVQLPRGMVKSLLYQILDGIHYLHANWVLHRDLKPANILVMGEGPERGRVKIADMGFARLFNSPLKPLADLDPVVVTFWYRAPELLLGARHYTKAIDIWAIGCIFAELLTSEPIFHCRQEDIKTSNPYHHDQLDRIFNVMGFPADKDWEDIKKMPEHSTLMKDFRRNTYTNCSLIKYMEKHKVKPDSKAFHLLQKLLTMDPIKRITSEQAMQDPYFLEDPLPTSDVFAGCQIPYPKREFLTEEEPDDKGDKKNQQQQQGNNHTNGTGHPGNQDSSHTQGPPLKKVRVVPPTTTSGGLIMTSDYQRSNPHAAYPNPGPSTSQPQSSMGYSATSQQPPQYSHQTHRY
CDK8/Cyclin C, sequence (P24863 whole entry partner): as the sequence (P24863 whole entry partner) above
CDK10/Cyclin L2, sequence (Q15131 whole entry): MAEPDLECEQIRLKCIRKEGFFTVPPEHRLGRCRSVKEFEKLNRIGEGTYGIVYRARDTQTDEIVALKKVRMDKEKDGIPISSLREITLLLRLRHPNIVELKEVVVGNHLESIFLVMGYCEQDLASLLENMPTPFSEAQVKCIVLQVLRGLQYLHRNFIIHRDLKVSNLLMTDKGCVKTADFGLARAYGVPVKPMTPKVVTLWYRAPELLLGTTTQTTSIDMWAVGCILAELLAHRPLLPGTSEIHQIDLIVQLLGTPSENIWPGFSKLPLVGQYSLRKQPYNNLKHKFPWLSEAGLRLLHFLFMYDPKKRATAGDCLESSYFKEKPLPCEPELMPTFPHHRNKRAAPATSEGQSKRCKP
CDK18/Cyclin Y, sequence (Q07002 whole entry): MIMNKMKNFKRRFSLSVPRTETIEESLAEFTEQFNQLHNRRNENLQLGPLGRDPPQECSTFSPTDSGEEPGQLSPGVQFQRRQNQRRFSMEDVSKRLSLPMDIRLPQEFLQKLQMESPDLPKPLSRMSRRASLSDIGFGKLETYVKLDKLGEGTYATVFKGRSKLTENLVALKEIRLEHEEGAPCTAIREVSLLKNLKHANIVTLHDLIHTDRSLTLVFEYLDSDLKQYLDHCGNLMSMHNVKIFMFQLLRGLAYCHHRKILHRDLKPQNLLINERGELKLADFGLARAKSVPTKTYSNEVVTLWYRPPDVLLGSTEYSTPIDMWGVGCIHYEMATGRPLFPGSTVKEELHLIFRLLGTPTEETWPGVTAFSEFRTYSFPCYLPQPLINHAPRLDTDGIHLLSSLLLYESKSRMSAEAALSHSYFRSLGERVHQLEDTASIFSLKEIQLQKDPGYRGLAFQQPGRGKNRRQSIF
CDK18/Cyclin Y, sequence (Q8ND76 whole entry partner): as the sequence (Q8ND76 whole entry partner) above

SMILES: Cn1cc(-c2ccc(-c3cncc(Cl)c3N3CCC4(CCNC4=O)CC3)cc2)cn1 [CCT251545]
- inhibition at 10 µM (CDK14/Cyclin Y; average): -6%
- inhibition at 10 µM (CDK14/Cyclin Y; experiment 1): -5.6%
- inhibition at 10 µM (CDK14/Cyclin Y; experiment 2): -6.4%
- inhibition at 10 µM (CDK1/Cyclin E1; average): 15.4%
- inhibition at 10 µM (CDK1/Cyclin E1; experiment 1): 21.3%
- inhibition at 10 µM (CDK1/Cyclin E1; experiment 2): 9.4%
- inhibition at 10 µM (CDK15/Cyclin Y; average): 1.4%
- inhibition at 10 µM (CDK15/Cyclin Y; experiment 1): 2.4%
- inhibition at 10 µM (CDK15/Cyclin Y; experiment 2): 0.46%
- inhibition at 10 µM (CDK9/Cyclin K; average): 15.8%
- inhibition at 10 µM (CDK9/Cyclin K; experiment 1): 9.2%
- inhibition at 10 µM (CDK9/Cyclin K; experiment 2): 22.5%
- Kd (CDK19/Cyclin C): ≤ 10 nM
- IC50 (CDK19/Cyclin C; experiment 2): 1.5 nM
- IC50 (CDK19/Cyclin C; experiment 3): 10 nM
- inhibition at 10 µM (CDK19/Cyclin C; average): 94%
- inhibition at 10 µM (CDK19/Cyclin C; experiment 1): 97.3%
- inhibition at 10 µM (CDK19/Cyclin C; experiment 2): 90.6%
- Kd (CDK8/Cyclin C): ≤ 10 nM
- IC50 (CDK8/Cyclin C; IC50 (nM), experiment 1): 2 nM
- IC50 (CDK8/Cyclin C; IC50 (nM), experiment 2): 2 nM
- IC50 (CDK8/Cyclin C; IC50 (nM), experiment 3): 9 nM
- IC50 (CDK8/Cyclin C; IC50 for CDK/cyclin complexes, live HEK-293, 2 h, mean ± S.E.M. (n=3) or mean (n=2)): 6 nM
- inhibition at 10 µM (CDK8/Cyclin C; average): 97.8%
- inhibition at 10 µM (CDK8/Cyclin C; experiment 1): 98.8%
- inhibition at 10 µM (CDK8/Cyclin C; experiment 2): 96.9%
- inhibition at 10 µM (CDK2/Cyclin E1; average): -6.3%
- inhibition at 10 µM (CDK2/Cyclin E1; experiment 1): -6.4%
- inhibition at 10 µM (CDK2/Cyclin E1; experiment 2): -6.1%
- inhibition at 10 µM (CDK5/CDK5R1; average): 16.2%
- inhibition at 10 µM (CDK5/CDK5R1; experiment 1): 23.2%
- inhibition at 10 µM (CDK5/CDK5R1; experiment 2): 9.2%
- inhibition at 10 µM (CDK10/Cyclin L2; average): 6.5%
- inhibition at 10 µM (CDK10/Cyclin L2; experiment 1): -3.1%
- inhibition at 10 µM (CDK10/Cyclin L2; experiment 2): 16.1%
- inhibition at 10 µM (CDK11A/Cyclin L2; average): 4.8%
- inhibition at 10 µM (CDK11A/Cyclin L2; experiment 1): -0.8%
- inhibition at 10 µM (CDK11A/Cyclin L2; experiment 2): 10.3%
- inhibition at 10 µM (CDK16/Cyclin Y; experiment 1): 1.8%
- inhibition at 10 µM (CDK16/Cyclin Y; experiment 2): -12.1%
- inhibition at 10 µM (CDK17/Cyclin Y; average): 1.3%
- inhibition at 10 µM (CDK17/Cyclin Y; experiment 1): 5.9%
- inhibition at 10 µM (CDK17/Cyclin Y; experiment 2): -3.2%
- inhibition at 10 µM (CDK13/Cyclin K; average): 7.2%
- inhibition at 10 µM (CDK13/Cyclin K; experiment 1): 7.3%
- inhibition at 10 µM (CDK13/Cyclin K; experiment 2): 7.1%
- inhibition at 10 µM (CDK6/Cyclin D1; average): -5%
- inhibition at 10 µM (CDK6/Cyclin D1; experiment 1): -11.6%
- inhibition at 10 µM (CDK6/Cyclin D1; experiment 2): 1.5%
- inhibition at 10 µM (CDK18/Cyclin Y; average): 10.8%
- inhibition at 10 µM (CDK18/Cyclin Y; experiment 1): 2.3%
- inhibition at 10 µM (CDK18/Cyclin Y; experiment 2): 19.2%
- inhibition at 10 µM (CDK12/Cyclin K; average): -2.2%
- inhibition at 10 µM (CDK12/Cyclin K; experiment 1): 2.5%
- inhibition at 10 µM (CDK12/Cyclin K; experiment 2): -6.8%
- inhibition at 10 µM (CDK20/Cyclin H; experiment 1): 3.3%
- inhibition at 10 µM (CDK20/Cyclin H; experiment 2): 5.3%
- inhibition at 10 µM (CDK4/Cyclin D1; average): 6.9%
- inhibition at 10 µM (CDK4/Cyclin D1; experiment 1): -6.1%
- inhibition at 10 µM (CDK4/Cyclin D1; experiment 2): 19.9%
- inhibition at 10 µM (CDK11B/Cyclin L2; average): -1%
- inhibition at 10 µM (CDK11B/Cyclin L2; experiment 1): -3.6%
- inhibition at 10 µM (CDK11B/Cyclin L2; experiment 2): 1.7%
